Test: xn = mol fraction of the nth substance listed
Conditions: 100.8 kPa, Liquid

CC(C)CC(C)(C)C [2,2,4-trimethylpentane] + CCC(C)=O
x2 = 0
Conditions | mass density [kg/m3] | viscosity [mPa·s]
298.15 K | 687.8 | 0.474
308.15 K | 679.5 | 0.426
318.15 K | 671 | 0.382

CC(C)CC(C)(C)C [2,2,4-trimethylpentane] + CCO
Conditions | mass density, 298.15 K [kg/m3] | mass density, 308.15 K [kg/m3] | mass density, 318.15 K [kg/m3] | viscosity, 298.15 K [mPa·s] | viscosity, 308.15 K [mPa·s] | viscosity, 318.15 K [mPa·s]
x2 = 0 | 687.8 | 679.5 | 671 | 0.474 | 0.422 | 0.382
x2 = 0.05 | 688.8 | 680.4 | 671.7 | 0.476 | 0.424 | 0.384
x2 = 0.1 | 690.3 | 681.8 | 673 | 0.478 | 0.426 | 0.385
x2 = 0.15 | 692.1 | 683.5 | 674.7 | 0.48 | 0.429 | 0.389
x2 = 0.2 | 694 | 685.4 | 676.5 | 0.484 | 0.433 | 0.391
x2 = 0.25 | 696.2 | 687.5 | 678.6 | 0.494 | 0.439 | 0.397
x2 = 0.3 | 698.5 | 689.8 | 680.9 | 0.507 | 0.45 | 0.404
x2 = 0.35 | 701.1 | 692.4 | 683.4 | 0.521 | 0.462 | 0.412
x2 = 0.4 | 704 | 695.2 | 686.2 | 0.54 | 0.474 | 0.422
x2 = 0.45 | 707.1 | 698.3 | 689.3 | 0.561 | 0.487 | 0.433
x2 = 0.5 | 710.6 | 701.8 | 692.8 | 0.586 | 0.506 | 0.446
x2 = 0.55 | 714.5 | 705.7 | 696.6 | 0.613 | 0.527 | 0.463
x2 = 0.6 | 718.8 | 710 | 700.9 | 0.643 | 0.55 | 0.48
x2 = 0.65 | 723.6 | 714.9 | 705.8 | 0.678 | 0.576 | 0.5
x2 = 0.7 | 729.1 | 720.3 | 711.3 | 0.718 | 0.606 | 0.524
x2 = 0.75 | 735.4 | 726.6 | 717.6 | 0.76 | 0.641 | 0.55
x2 = 0.8 | 742.3 | 733.6 | 724.7 | 0.806 | 0.677 | 0.58
x2 = 0.85 | 750.5 | 741.7 | 732.9 | 0.861 | 0.72 | 0.616
x2 = 0.9 | 760.1 | 751.4 | 742.5 | 0.929 | 0.768 | 0.657
x2 = 0.95 | 771.5 | 762.8 | 753.9 | 0.999 | 0.829 | 0.702

CCC(C)=O [butanone] + CC(C)CC(C)(C)C
Conditions | mass density, 298.15 K [kg/m3] | mass density, 308.15 K [kg/m3] | mass density, 318.15 K [kg/m3] | viscosity, 298.15 K [mPa·s] | viscosity, 308.15 K [mPa·s] | viscosity, 318.15 K [mPa·s]
x1 = 0.05 | 690.1 | 681.7 | 673.1 | 0.461 | 0.416 | 0.374
x1 = 0.1 | 692.7 | 684.2 | 675.4 | 0.451 | 0.408 | 0.367
x1 = 0.15 | 695.6 | 687 | 678.2 | 0.443 | 0.4 | 0.36
x1 = 0.2 | 698.7 | 690.1 | 681.1 | 0.436 | 0.394 | 0.354
x1 = 0.25 | 702.2 | 693.4 | 684.3 | 0.429 | 0.388 | 0.349
x1 = 0.3 | 705.9 | 697 | 687.8 | 0.423 | 0.382 | 0.344
x1 = 0.35 | 709.9 | 700.9 | 691.6 | 0.417 | 0.377 | 0.339
x1 = 0.4 | 714.1 | 705.1 | 695.7 | 0.412 | 0.372 | 0.335
x1 = 0.45 | 718.7 | 709.5 | 700.1 | 0.407 | 0.368 | 0.331
x1 = 0.5 | 723.6 | 714.3 | 704.8 | 0.402 | 0.363 | 0.328
x1 = 0.55 | 728.8 | 719.4 | 709.8 | 0.398 | 0.36 | 0.325
x1 = 0.6 | 734.5 | 724.9 | 715.3 | 0.394 | 0.356 | 0.322
x1 = 0.65 | 740.6 | 731 | 721.2 | 0.39 | 0.353 | 0.32
x1 = 0.7 | 747.2 | 737.4 | 727.5 | 0.387 | 0.35 | 0.317
x1 = 0.75 | 754.2 | 744.3 | 734.3 | 0.384 | 0.347 | 0.315
x1 = 0.8 | 761.9 | 751.9 | 741.7 | 0.381 | 0.345 | 0.313
x1 = 0.85 | 770.4 | 760.2 | 749.9 | 0.379 | 0.343 | 0.311
x1 = 0.9 | 779.3 | 769 | 758.6 | 0.377 | 0.342 | 0.309
x1 = 0.95 | 789.2 | 778.8 | 768.2 | 0.377 | 0.341 | 0.308
x1 = 1 | 799.7 | 789.2 | 778.4 | 0.378 | 0.341 | 0.307

CCC(C)=O [butanone] + CCO
Conditions | mass density, 298.15 K [kg/m3] | mass density, 308.15 K [kg/m3] | mass density, 318.15 K [kg/m3] | viscosity, 298.15 K [mPa·s] | viscosity, 308.15 K [mPa·s] | viscosity, 318.15 K [mPa·s]
x2 = 0 | 799.7 | 789.2 | 778.4 | 0.378 | 0.341 | 0.307
x2 = 0.05 | 799.3 | 788.8 | 778 | 0.38 | 0.345 | 0.313
x2 = 0.1 | 798.9 | 788.3 | 777.6 | 0.386 | 0.349 | 0.316
x2 = 0.15 | 798.4 | 787.9 | 777.2 | 0.393 | 0.353 | 0.32
x2 = 0.2 | 797.9 | 787.4 | 776.8 | 0.4 | 0.359 | 0.324
x2 = 0.25 | 797.4 | 787 | 776.4 | 0.409 | 0.366 | 0.33
x2 = 0.3 | 796.9 | 786.5 | 776 | 0.42 | 0.376 | 0.337
x2 = 0.35 | 796.4 | 786.1 | 775.6 | 0.431 | 0.387 | 0.345
x2 = 0.4 | 795.8 | 785.6 | 775.2 | 0.446 | 0.397 | 0.355
x2 = 0.45 | 795.2 | 785.1 | 774.7 | 0.469 | 0.412 | 0.365
x2 = 0.5 | 794.6 | 784.6 | 774.3 | 0.49 | 0.426 | 0.381
x2 = 0.55 | 794 | 784 | 773.8 | 0.512 | 0.443 | 0.398
x2 = 0.6 | 793.3 | 783.4 | 773.3 | 0.539 | 0.467 | 0.412
x2 = 0.65 | 792.6 | 782.8 | 772.8 | 0.576 | 0.493 | 0.434
x2 = 0.7 | 791.8 | 782.1 | 772.2 | 0.618 | 0.526 | 0.456
x2 = 0.75 | 790.9 | 781.4 | 771.6 | 0.673 | 0.56 | 0.482
x2 = 0.8 | 790 | 780.6 | 771 | 0.734 | 0.601 | 0.519
x2 = 0.85 | 788.9 | 779.7 | 770.3 | 0.799 | 0.654 | 0.56
x2 = 0.9 | 787.8 | 778.7 | 769.5 | 0.869 | 0.722 | 0.613
x2 = 0.95 | 786.6 | 777.7 | 768.6 | 0.961 | 0.803 | 0.676

Source: the NIST ThermoML archive (doi:10.1021/je049655w)
